Source: article PMC3493529, “Molecular and Pharmacological Characterization of Serotonin 5-HT2α and 5-HT7 Receptors in the Salivary Glands of the Blowfly Calliphora vicina” (PLoS ONE, 2012)
Counter-ions that a name gives are not always drawn. Like-named read-outs stand apart in the source and are kept apart here.

How the values were obtained:
[1] = target: T1, Cv5-HT7 (Calliphora vicina, UniProt I7IA71); assay: Inhibition of 5-HT-induced Fluo-4 signals in Cv5-HT7-expressing cells; assay type: cell-based
Method: (§1) We applied a previously established protocol to generate cell lines that constitutively expressed either Cv5-HT2α or Cv5-HT7. For Cv5-HT2α expression, human embryonic kidney cells (HEK 293; ECACC, Salisbury, UK) were chosen. […] (flpTM cells, provided by Sibion biosciences GmbH, Jülich, Germany). Approximately 8 µg of the respective expression vectors were introduced into ∼4×10^5 cells by a modified calcium-phosphate method. Stably transfected cells were selected in the presence of the antibiotics Blasticidin (0.1 mg/ml; Cv5-HT2α) or G418 (0.8 mg/ml; Cv5-HT7). Expression of Cv5-HT2α and Cv5-HT7 was monitored by Western blotting with commercially available anti-His antibodies (anti-6x His Epitope Tag; Rockland Immunochemicals Inc, Gilbertsville, USA) and anti-HA antibodies (clone 3F10; Roche, Penzberg, Germany), respectively.
(§2) The ability of Cv5-HT2α to induce Ca^2+ signals in the transfected cell line was measured with the Ca^2+-sensitive dye Fluo-4. Similarly, Cv5-HT7-induced cAMP production was indirectly monitored by the cAMP-dependent activation of the cyclic nucleotide-gated ion channel in flpTM cells (see above). The cyclic nucleotide-gated ion channel is permeable to Ca^2+ ions and thus an increase in [cAMP]i leads to an influx of Ca^2+ ions, which can be detected with Fluo-4. Cells were grown in 96-well plates to a density of ∼3×10^4 (Cv5-HT2α) or 1.5×10^4 (Cv5-HT7) and then incubated in extracellular solution (ES in mM: 120 NaCl, 5 KCl, 2 CaCl2, 2 MgCl2, 10 glucose, 10 HEPES, pH 7.4) containing 3 mM probenecid, 0.02% (w/v) Pluronic® F-127 (Sigma) and 2 µM Fluo-4AM (Invitrogen). After 1 h, the loading solution was substituted for dye-free ES. To inhibit cAMP hydrolysis in Cv5-HT7-expressing cells, ES containing 100 µM isobutylmethylxanthine (IBMX) was used. Plates were transferred into a fluorescence reader (FLUOstar Omega; bmg, Offenburg, Germany) and Fluo-4 fluorescence was monitored. The excitation wavelength was 485 nm. Fluorescence emission was detected at 520 nm. Once the basal fluorescence in each well had reached a stable value, various concentrations of the respective ligands were added. The resulting changes in Fluo-4 fluorescence were recorded automatically.
(§3) Changes in Ca^2+-dependent Fluo-4 signals were registered automatically. Data represent the means±SD of eight replicates. […] Relative fluorescence (%) is normalized to the values obtained with 100 nM 5-HT in the absence of antagonists. […] Relative fluorescence (%) is normalized to the values obtained with 6 nM 5-HT in the absence of antagonists.

[2] = target: T2, Cv5-HT2α (Calliphora vicina, UniProt I7JA47); assay: Inhibition of 5-HT-induced Ca2+ signals in Cv5-HT2α-expressing cells; assay type: cell-based
Method: as §1, §2, §3

[3] = tested on: blowfly salivary glands; assay: 5-HT-induced TEP response of blowfly salivary glands, antagonists; assay type: cell-based, Calliphora vicina; set-up: key to suppression of the positive TEP phase: ++: complete; +: incomplete; -: no apparent effect; -/+: variable effect; key to suppression of the negative TEP phase: ++: high amplitude; +: low amplitude; -: no apparent effect; -/+: variable effect; details: for reversibility / suppression of the negative TEP phase / suppression of the positive TEP phase: TEP response evoked with 10 nM or 30 nM 5-HT
Method: (§4) The abdominal portions of salivary glands were dissected in physiological saline (in mM: 128 NaCl, 10 KCl, 2 CaCl2, 2.7 MgCl2, 3 Na-glutamate, 2.8 maleic acid, 10 D-glucose and 10 Tris-HCl, pH 7.2). Measurements of transepithelial potential (TEP) were performed by the oil-gap method with a DPA-2F differential amplifier (npi Electronic Instruments, Tamm, Germany). Data were sampled and digitized at 1 Hz (KUSB-3102 module for AD-conversion; Keithley, Germering, Germany) by using the software TestPoint (v4.1; Capital Equipment Corp, Billerica, MA, USA) for data acquisition and storage.

[4] = target: T2, Cv5-HT2α; assay: Ca2+ signals (Fluo-4) in Cv5-HT2α-expressing HEK 293 cells, agonists; assay type: cell-based
Method: as §1, with “Cv5-HT7.” for “Cv5-HT7. For Cv5-HT2α expression, human embryonic kidney cells (HEK 293; ECACC, Salisbury, UK) were chosen.”
as §2, with “Cells were grown in 96-well plates to a density of ∼3×10^4 (Cv5-HT2α) or 1.5×10^4 (Cv5-HT7) and then incubated in extracellular solution (ES in mM: 120 NaCl, 5 KCl, 2 CaCl2, 2 MgCl2, 10 glucose, 10 HEPES, pH 7.4) containing 3 mM probenecid, 0.02% (w/v) Pluronic® F-127 (Sigma) and 2 µM Fluo-4AM (Invitrogen).” left out, “The excitation wavelength was 485 nm.” left out

[5] = tested on: blowfly salivary glands; assay: Transepithelial potential (TEP) of blowfly salivary glands, agonists; assay type: cell-based, Calliphora vicina; set-up: key to negative TEP phase / positive TEP phase: ++: high amplitude; +: low amplitude; -: no apparent effect; -/+: variable effect
Method: as §4

[6] = target: T1, Cv5-HT7; assay: cAMP-dependent CNG channel Ca2+ influx (Fluo-4) in Cv5-HT7-expressing flpTM cells, agonists; assay type: cell-based; details: Cv5-HT7-expressing flpTM cells, 100 µM IBMX
Method: as §1, with “Cv5-HT7.” for “Cv5-HT7. For Cv5-HT2α expression, human embryonic kidney cells (HEK 293; ECACC, Salisbury, UK) were chosen.”
as §2, with “Cells were grown in 96-well plates to a density of ∼3×10^4 (Cv5-HT2α) or 1.5×10^4 (Cv5-HT7) and then incubated in extracellular solution (ES in mM: 120 NaCl, 5 KCl, 2 CaCl2, 2 MgCl2, 10 glucose, 10 HEPES, pH 7.4) containing 3 mM probenecid, 0.02% (w/v) Pluronic® F-127 (Sigma) and 2 µM Fluo-4AM (Invitrogen).” left out, “The excitation wavelength was 485 nm.” left out

[7] = in the presence of 6 nM 5-HT, read-out: Cv5-HT7 IC50
[8] = in the presence of 6 nM 5-HT, read-out: Cv5-HT7 log IC50 (converted)
[9] = in the presence of 100 nM 5-HT, read-out: Cv5-HT2α IC50
[10] = in the presence of 100 nM 5-HT, read-out: Cv5-HT2α log IC50 (converted)
[11] = Cv5-HT2α EC50, Ca2+-dependent Fluo-4 signal, Cv5-HT2α-expressing HEK 293 cells
[12] = Cv5-HT2α log EC50, Ca2+-dependent Fluo-4 signal, Cv5-HT2α-expressing HEK 293 cells
[13] = Ca2+-dependent Fluo-4 signal, Cv5-HT2α-expressing HEK 293 cells
[14] = Fluo-4 signal, read-out: Cv5-HT7 EC50

T1 sequence (I7IA71 entry or part of it): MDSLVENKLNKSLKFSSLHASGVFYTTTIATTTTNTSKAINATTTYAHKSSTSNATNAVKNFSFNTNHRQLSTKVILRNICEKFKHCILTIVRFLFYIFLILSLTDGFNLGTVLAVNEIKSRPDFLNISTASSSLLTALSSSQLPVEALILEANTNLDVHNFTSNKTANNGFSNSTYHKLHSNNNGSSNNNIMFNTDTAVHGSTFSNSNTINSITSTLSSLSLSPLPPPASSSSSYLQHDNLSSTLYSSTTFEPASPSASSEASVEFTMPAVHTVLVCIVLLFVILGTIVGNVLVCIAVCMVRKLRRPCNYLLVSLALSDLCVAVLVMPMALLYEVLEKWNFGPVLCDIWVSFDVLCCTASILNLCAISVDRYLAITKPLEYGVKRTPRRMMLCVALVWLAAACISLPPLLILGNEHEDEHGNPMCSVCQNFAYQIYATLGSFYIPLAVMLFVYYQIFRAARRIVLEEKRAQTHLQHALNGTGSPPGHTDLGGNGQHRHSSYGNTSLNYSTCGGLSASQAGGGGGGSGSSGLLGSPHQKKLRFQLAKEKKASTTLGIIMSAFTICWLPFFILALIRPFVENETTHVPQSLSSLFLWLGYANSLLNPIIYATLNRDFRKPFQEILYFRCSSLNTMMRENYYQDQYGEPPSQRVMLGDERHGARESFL
T2 sequence (I7JA47 entry or part of it): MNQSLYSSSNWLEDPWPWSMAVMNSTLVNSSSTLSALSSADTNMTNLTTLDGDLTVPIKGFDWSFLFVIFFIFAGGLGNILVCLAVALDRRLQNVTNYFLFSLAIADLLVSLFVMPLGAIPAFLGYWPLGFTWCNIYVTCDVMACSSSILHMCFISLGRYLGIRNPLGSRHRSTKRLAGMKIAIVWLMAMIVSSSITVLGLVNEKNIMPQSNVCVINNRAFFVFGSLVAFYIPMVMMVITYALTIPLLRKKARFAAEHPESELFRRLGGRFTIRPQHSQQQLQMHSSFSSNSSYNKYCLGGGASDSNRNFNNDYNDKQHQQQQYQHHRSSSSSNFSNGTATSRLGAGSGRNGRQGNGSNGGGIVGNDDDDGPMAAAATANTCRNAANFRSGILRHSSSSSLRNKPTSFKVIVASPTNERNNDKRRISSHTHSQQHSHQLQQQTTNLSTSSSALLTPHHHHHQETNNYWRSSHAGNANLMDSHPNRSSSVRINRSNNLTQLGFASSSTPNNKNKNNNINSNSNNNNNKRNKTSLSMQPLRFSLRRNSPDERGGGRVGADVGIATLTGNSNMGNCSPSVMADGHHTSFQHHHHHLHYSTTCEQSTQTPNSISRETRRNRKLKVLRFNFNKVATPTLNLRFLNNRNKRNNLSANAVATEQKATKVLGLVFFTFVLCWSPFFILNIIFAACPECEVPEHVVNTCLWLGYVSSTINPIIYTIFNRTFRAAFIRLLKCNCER

COC(=O)[C@@H]1[C@H]2C[C@H]3c4[nH]c5ccccc5c4CCN3C[C@@H]2CC[C@@H]1O [yohimbine]
IC50 ([1]; Cv5-HT7 IC50, in the presence of 6 nM 5-HT): 192000 nM
IC50 ([1]; Cv5-HT7 log IC50, in the presence of 6 nM 5-HT): 191000 nM
IC50 ([2]; Cv5-HT2α IC50, in the presence of 100 nM 5-HT): 2.9 µM
IC50 ([2]; Cv5-HT2α log IC50, in the presence of 100 nM 5-HT): 2.88 µM

CN1CCN(C2=Nc3cc(Cl)ccc3Nc3ccccc32)CC1 [clozapine]
effect on 5-HT-induced TEP response ([3]; 1 µM, 30 nM 5-HT): completely and selectively inhibited the positive TEP phase
reversibility ([3]; 1 µM): yes
suppression of the negative TEP phase ([3]; 1 µM): -
suppression of the positive TEP phase ([3]; 1 µM): ++

O=C(c1ccc(F)cc1)C1CCN(CCn2c(=O)[nH]c3ccccc3c2=O)CC1 [ketanserin]
IC50 [1, 7]: 1500 nM
IC50 [1, 8]: 1450 nM
IC50 [2, 9]: 14 µM
IC50 [2, 10]: 14.1 µM

COc1ccc2[nH]cc(CCN)c2c1 [5-MeOT, 5-methoxytryptamine]
EC50 [4, 11]: 0.067 µM
EC50 [4, 12]: 0.0676 µM
TEP change of salivary glands ([5]; 30 nM or 100 nM): only a negative-going TEP change
negative TEP phase ([5]; 0.03-0.1 µM): ++
positive TEP phase ([5]; 0.03-0.1 µM): -
reversibility ([5]; 0.03-0.1 µM): yes
negative TEP phase ([5]; 1-100 µM): ++
positive TEP phase ([5]; 1-100 µM): +
reversibility ([5]; 1-100 µM): yes
TEP change of salivary glands ([5]; 1–100 µM): biphasic response
EC50 ([6]; Cv5-HT7 EC50, Fluo-4 signal): 950 nM
EC50 ([6]; Cv5-HT7 log EC50, Fluo-4 signal): 955 nM

O=C(CCCN1CCC2(CC1)C(=O)NCN2c1ccccc1)c1ccc(F)cc1 [spiperone]
IC50 [1, 7]: 280 nM
IC50 [1, 8]: 275 nM
Cv5-HT2α IC50 ([2]; in the presence of 100 nM 5-HT): no effect
Cv5-HT2α log IC50 ([2]; in the presence of 100 nM 5-HT): no effect
reversibility ([3]; 1-10 µM): yes
suppression of the negative TEP phase ([3]; 1-10 µM): -
suppression of the positive TEP phase ([3]; 1-10 µM): +
effect on 5-HT-induced TEP response ([3]; 1–10 µM): reversibly but incompletely inhibited the positive phase

Cc1nn(C)c(C)c1-c1cccc2c1CC[C@H](N(C)C)C2 [AS 19, (2S)-(+)-5-(1,3,5-Trimethylpyrazol-4-yl)-2-(dimethylamino)tetralin]
Cv5-HT2α EC50 [4, 13]: no effect
Cv5-HT2α log EC50 [4, 13]: no effect
negative TEP phase ([5]; 100 µM): -
positive TEP phase ([5]; 100 µM): -/+
reversibility ([5]; 100 µM): yes
TEP change of salivary glands ([5]; 1–100 µM): only positive-going changes in the TEP
Cv5-HT7 log EC50 ([6]; Fluo-4 signal): −6.52±0.04
EC50 [6, 14]: 300 nM

CC1CCN(CC[C@H]2CCCN2S(=O)(=O)c2cccc(O)c2)CC1 [SB-269970]
Cv5-HT7 log IC50 ([1]; in the presence of 6 nM 5-HT): −8.06±0.21
inhibitory efficacy at Cv5-HT7 (reduction of the 5-HT-evoked cellular response) ([1]; in the presence of 6 nM 5-HT): ~15%
IC50 [1, 7]: 9 nM
Cv5-HT2α log IC50 ([2]; in the presence of 100 nM 5-HT): −4.27±0.30
IC50 [2, 9]: 53 µM

Cc1ccc(N(CC2=NCCN2)c2cccc(O)c2)cc1 [phentolamine]
IC50 [1, 7]: 4700 nM
IC50 [1, 8]: 4680 nM
IC50 [2, 9]: 198 µM
IC50 [2, 10]: 200 µM

CN(C)CCCSc1ccccc1NC(=O)/C=C/c1ccccc1 [cinanserin, cinanserin hydrochloride]
IC50 [1, 7]: 400 nM
IC50 [1, 8]: 398 nM
IC50 [2, 9]: 30 µM
IC50 [2, 10]: 29.5 µM
effect on 5-HT-induced TEP response ([3]; 10 µM): reversibly but incompletely inhibited the positive phase
reversibility ([3]; 10 µM): yes
suppression of the negative TEP phase ([3]; 10 µM): -
suppression of the positive TEP phase ([3]; 10 µM): +

CSc1ccc2c(c1)C(N1CCN(C)CC1)Cc1ccccc1S2 (centres unmarked) [methiothepin]
antagonistic effect on Cv5-HT7 ([1]; high concentrations (10 µM)): slight antagonistic effect
Cv5-HT7 IC50 ([1]; in the presence of 6 nM 5-HT): not calculable
Cv5-HT7 log IC50 ([1]; in the presence of 6 nM 5-HT): not calculable
Cv5-HT2α log IC50 ([2]; in the presence of 100 nM 5-HT): −5.92±0.06
IC50 [2, 9]: 1.2 µM
reversibility ([3]; 3 µM): no
suppression of the negative TEP phase ([3]; 3 µM): -/+
suppression of the positive TEP phase ([3]; 3 µM): ++
effect on 5-HT-induced TEP response ([3]; ≥1 µM): completely abolished the positive TEP phase

NCCc1c[nH]c2ccc(C(N)=O)cc12 [5-CT, 5-carboxamidotryptamine]
Cv5-HT2α log EC50 [4, 13]: −4.29±0.05
EC50 ([4]; Ca2+-dependent Fluo-4 signal, Cv5-HT2α-expressing HEK 293 cells, read-out: Cv5-HT2α EC50): 51 µM
TEP change of salivary glands ([5]; 0.3 µM): only a positive-going TEP change
negative TEP phase ([5]; 0.3 µM): -
positive TEP phase ([5]; 0.3 µM): +
reversibility ([5]; 0.3 µM): yes
negative TEP phase ([5]; 10 µM): ++
positive TEP phase ([5]; 10 µM): ++
reversibility ([5]; 10 µM): yes
TEP change of salivary glands ([5]; concentrations 1 µM): biphasic TEP response
Cv5-HT7 log EC50 ([6]; Fluo-4 signal): −6.37±0.02
EC50 [6, 14]: 430 nM

CCCN(CCC)C1CCc2cccc(O)c2C1 (racemic) [8-OH-DPAT, (+/−)-8-hydroxy-2-(dipropylamino)tetralin]
EC50 [4, 11]: 62 µM
EC50 [4, 12]: 61.7 µM
EC50 [6, 14]: 7900 nM
EC50 ([6]; Fluo-4 signal, read-out: Cv5-HT7 log EC50 (converted)): 7940 nM

NCCc1c[nH]cn1 [histamine]
effect on [Ca2+]i in Cv5-HT2α-expressing cells ([4]; 1 µM biogenic amine, non-transfected cells as control): stimulated Ca^2+ signals
